Laboratory results published in US10703740B2, “Substituted benzimidazoles, their preparation and their use as pharmaceuticals” (NEOMED Institute, priority 2015, dated 2020).

Experiments:
[1] = system: human C-Myc transcription in MV-4-11 cells; assay: Transcription of human C-Myc in human leukemic MV-4-11 cells (QuantiGene 2.0); assay type: cell-based; settings: Homo sapiens, MV4-11, 4 h, inhibition of C-Myc mRNA, 4 hours treatment, read-out: IC50 MV-4-11 Cell
Procedure: The effect of compounds on transcription of human C-Myc gene is monitored in human B-myelomonocytic leukemia cell line MV-4-11 (from American Type Culture Collection (ATCC), Manassas, Va., USA) using QuantiGene 2.0 assay kit (Affymetrix, Santa Clara, Calif., USA).
Typically, 8,000 MV-4-11 cells are plated in sterile 96-well plates (Costar #3598 from Fisher Scientific Canada, Ottawa, Ontario, Canada) in Iscove's medium supplemented with 10% fetal bovine serum, glutamine (2 mM), and penicillin (100 I.U.) and streptomycin (100 μg/mL) (all from Wisent Inc., St. Bruno, Quebec, Canada). Compounds are dissolved in DMSO at 30 mM. A series of 1:3 dilutions are first made in DMSO, and further 1:100 dilutions are made in serum-containing cell culture media. The final concentration of DMSO is 0.1% in cell culture media. After cells are treated with various concentrations of test compound for 4 hours, cells are lysed using Quantigene 2.0 sample processing kit (# QS0100). C-Myc mRNA is detected using a QuantiGene 2.0 assay kit (# QS0009) with gene-specific probe to human C-Myc (# SA-50182) following the manufacturer's recommendations. Luminescene signals are read on Flexstation II microplate reader (Molecular Devices, Sunnyvale, Calif., USA).

[2] = molecular target: BRD4(BD1) (Homo sapiens (Human), UniProt O60885); assay: In vitro bromodomain inhibition assay (AlphaLISA); assay type: binding; settings: His-tagged BRD4 BD1 200 nM, biotinylated H4-tetraacetyl peptide 200 nM
Procedure: To measure activity of bromodomain inhibitors, a His-epitope tagged BRD4 BD149-170 is purchased from BPS Bioscience. BRD4 binding and inhibition is assessed by monitoring the engagement of biotinylated H4-tetraacetyl peptide (H4K5/8/12/16; AnaSpec #64989-025) with the target using the AlphaLISA technology (Perkin-Elmer). Specifically, in a 384 well OptiPlate, BRD4(BD1) (200 nM final) is pre-incubated with either DMSO (final 1.0% DMSO) or a compound dilution series in DMSO. All reagents are diluted in assay buffer containing 50 mM HEPES (pH 7.4), 100 mM NaCl, 0.1% (w/v) BSA, and 0.05% (w/v) CHAPS. After a 30 minute incubation at rt, H4 peptide is added (200 nM final) and the reaction is incubated an additional 30 minutes at rt. Alpha streptavidin donor beads and AlphaLISA nickel chelate acceptor beads are then added to a final concentration of 10 μg/mL each. After one hour, equilibration plates are read on an Envision instrument and IC50s calculated using a four parameter non-linear curve fit (results are shown in Table 1).

| Structure (SMILES) | IC50 [1] [nM] | IC50 [2] [nM] |
| --- | --- | --- |
| Cn1cc(-c2ccc3nc(C4CC4)n(CCOC(F)(F)F)c3c2)cc(C(F)(F)F)c1=O [Compound 13, 5-[2-cyclopropyl-3-[2-(trifluoromethoxy)ethyl]benzimidazol-5-yl]-1-methyl-3-(trifluoromethyl)pyridin-2-one] | 850 | 810 |
| COC[C@@H](C)n1cnc2ccc(-c3cc(C)c(=O)n(C)c3)cc21 [Compound 12, 5-[3-[(1R)-2-methoxy-1-methyl-ethyl]benzimidazol-5-yl]-1,3-dimethyl-pyridin-2-one] | 550 | 330 |
| Cc1cc(-c2ccc3ncn(CCOC(F)(F)F)c3c2)cn(C)c1=O [Compound 3, 1,3-dimethyl-5-[3-[2-(trifluoromethoxy)ethyl]benzimidazol-5-yl]pyridin-2-one] | 95 | 310 |
| COC[C@@H](C)n1c(C2CC2)nc2ccc(-c3cc(C)c(=O)n(C)c3)cc21 [Compound 15, 5-[2-cyclopropyl-3-[(1R)-2-methoxy-1-methylethyl]benzimidazol-5-yl]-1,3-dimethyl pyridin-2-one] | 240 | 100 |
| CC(=O)N1CCC(c2nc3ccc(-c4cc(C)c(=O)n(C)c4)cc3n2CCOC(F)(F)F)CC1 [Compound 4, 5-[2-(1-acetyl-4-piperidyl)-3-[2-(trifluoromethoxy)ethyl]benzimidazol-5-yl]-1,3-dimethylpyridin-2-one] | 89 | 130 |
| Cc1cc(-c2ccc3nc(C)n(CCOC(F)(F)F)c3c2)cn(C)c1=O [Compound 5, 1,3-dimethyl-5-[2-methyl-3-[2-(trifluoromethoxy)ethyl]benzimidazol-5-yl]pyridin-2-one] | 230 | 190 |

Other lines, results leading:

| IC50 [1] [nM] | IC50 [2] [nM] | Structure (SMILES) |
| --- | --- | --- |
| 76 | 140 | Cc1cc(-c2ccc3nc(C4CCOCC4)n(CCOC(F)(F)F)c3c2)cn(C)c1=O [Compound 1, 1,3-dimethyl-5-[2-tetrahydropyran-4-yl-3-[2-(trifluoromethoxy)ethyl]benzimidazol-5-yl]pyridin-2-one] |
| 86 | 190 | Cc1cc(-c2ccc3nc(C4CC4)n(CCOC(F)(F)F)c3c2)cn(C)c1=O [Compound 2, 5-[2-cyclopropyl-3-[2-(trifluoromethoxy)ethyl]benzimidazol-5-yl]-1,3-dimethylpyridin-2-one] |
| 250 | 220 | COCCn1c(C2CCOCC2)nc2ccc(-c3cc(C)c(=O)n(C)c3)cc21 [Compound 9, 5-[3-(2-methoxyethyl)-2-tetrahydropyran-4-yl-benzimidazol-5-yl]-1,3-dimethyl pyridin-2-one] |
